Laboratory results taken from PubChem BioAssay AID256 (DTP/NCI, 2004).
Values joined by “and” are separate entries in the source; they are usually repeats but may differ in a detail not shown here. Equal values may be shown once. Toxic doses and inconclusive results are not listed.

Tested on: CD2F1 mice, L1210 leukemia ip, survival T/C
Experiment: NCI In Vivo Anticancer Drug Screen. Data for tumor model L1210 Leukemia (intraperitoneal) in CD2F1 (CDF1) mice
Conditions: endpoint: mean survival time, higher = longer survival
Procedure, shortened: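 In this screen, transplantable tumors were grown in mice given either the compound or its vehicle. Results were expressed as the treated measurement relative to the control measurement.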

[1] = dose: 100.0 mg/kg/injection, schedule: Q01DX001 (ip), vehicle: saline
[2] = dose: 100.0 mg/kg/injection, schedule: Q04DX002 (ip), vehicle: Klucel (hydroxypropylcellulose) (HPC)
[3] = dose: 200.0 mg/kg/injection, schedule: Q04DX002 (ip), vehicle: Klucel (hydroxypropylcellulose) (HPC)
[4] = dose: 100.0 mg/kg/injection, schedule: Q01DX001 (ip), vehicle: saline with Tween-80
[5] = dose: 200.0 mg/kg/injection, schedule: Q01DX001 (ip), vehicle: saline with Tween-80
[6] = dose: 400.0 mg/kg/injection, schedule: Q01DX001 (ip), vehicle: saline with Tween-80
[7] = dose: 100.0 mg/kg/injection, schedule: Q04DX003 (ip), vehicle: saline with Tween-80
[8] = dose: 50.0 mg/kg/injection, schedule: Q04DX003 (ip), vehicle: saline with Tween-80

Cc1cc(C)c2nc(-c3ccc(Cl)cc3)cc(C(=O)O)c2c1
T/C [1]: 96 % of control
T/C [2]: 94 % of control
T/C [3]: 94 % of control

O=C1c2ccccc2C(=O)N1CCCCN1C(=O)c2ccccc2C1=O
T/C [4]: 90 % of control
T/C [5]: 87 % of control
T/C [6]: 90 % of control

O=C(C(=O)c1ccc(Cl)cc1)c1ccc(Cl)cc1
T/C (dose: 6.25 mg/kg/injection, schedule: Q04DX003 (ip), vehicle: other): 94 % of control
T/C (dose: 12.5 mg/kg/injection, schedule: Q04DX003 (ip), vehicle: other): 90 % of control
T/C (dose: 25.0 mg/kg/injection, schedule: Q04DX003 (ip), vehicle: other): 90 % of control

Cc1nc(C#N)c(N)nc1Cl
T/C [2]: 109 % of control
T/C [3]: 91 % of control
T/C (dose: 400.0 mg/kg/injection, schedule: Q04DX002 (ip), vehicle: Klucel (hydroxypropylcellulose) (HPC)): 109 % of control

O=C(OCC1OCOC(COC(=O)c2ccccc2)C(O)C1O)c1ccccc1 (stereo not drawn)
T/C [7]: 97 % of control
T/C (dose: 200.0 mg/kg/injection, schedule: Q04DX003 (ip), vehicle: saline with Tween-80): 97 % of control
T/C (dose: 400.0 mg/kg/injection, schedule: Q04DX003 (ip), vehicle: saline with Tween-80): 86 % of control

CCCCCCCCCCCCN(C)C
T/C (dose: 25.0 mg/kg/injection, schedule: Q01DX009 (ip), vehicle: saline with Tween-80): 92 % of control
T/C (dose: 25.0 mg/kg/injection, schedule: Q04DX003 (ip), vehicle: saline with Tween-80): 97 % of control
T/C (dose: 50.0 mg/kg/injection, schedule: Q01DX001 (ip), vehicle: saline): 96 % of control
T/C (dose: 50.0 mg/kg/injection, schedule: Q01DX009 (ip), vehicle: saline with Tween-80): 92 % of control
T/C [8]: 100 % of control
T/C [1]: 100 % of control
T/C [7]: 102 % of control

CCCCCCCCCCCCCCCC(=O)Nc1ccn(C2OC(CO)C(O)C2O)c(=O)n1 (stereo not drawn)
T/C (dose: 12.5 mg/kg/injection, schedule: Q01DX009 (ip), vehicle: saline): 213 % of control and 268 % of control
T/C (dose: 25.0 mg/kg/injection, schedule: Q01DX009 (ip), vehicle: saline): 189 % of control and 270 % of control
T/C (dose: 50.0 mg/kg/injection, schedule: Q01DX009 (ip), vehicle: saline): 225 % of control and 307 % of control
T/C (dose: 50.0 mg/kg/injection, schedule: Q04DX002 (ip), vehicle: saline): 331 % of control
T/C (dose: 100.0 mg/kg/injection, schedule: Q04DX002 (ip), vehicle: saline): 344 % of control and 345 % of control
T/C (dose: 200.0 mg/kg/injection, schedule: Q01DX009 (ip), vehicle: saline): 95 % of control
T/C (dose: 200.0 mg/kg/injection, schedule: Q04DX002 (ip), vehicle: saline): 198 % of control

O=C1C(Cc2ccccc2)CCCC1Cc1ccccc1 (stereo not drawn)
T/C [4]: 100 % of control
T/C [5]: 98 % of control
T/C [6]: 102 % of control

COc1cc([N+](=O)[O-])ccc1C(=O)O
T/C (dose: 100.0 mg/kg/injection, schedule: Q01DX001 (ip), vehicle: Klucel (hydroxypropylcellulose) (HPC)): 95 % of control
T/C (dose: 200.0 mg/kg/injection, schedule: Q01DX001 (ip), vehicle: Klucel (hydroxypropylcellulose) (HPC)): 100 % of control
T/C (dose: 400.0 mg/kg/injection, schedule: Q01DX001 (ip), vehicle: Klucel (hydroxypropylcellulose) (HPC)): 103 % of control

[O-][n+]1cc(-c2ccccc2)cc2ccccc21
T/C [8]: 97 % of control
T/C [7]: 97 % of control

Cc1cc(NC(=O)CCc2ccc(N3C(N)=NC(N)=NC3(C)C)cc2)ccc1S(=O)(=O)F
T/C (dose: 0.8 mg/kg/injection, schedule: Q01DX015 (ip), vehicle: water): 112 % of control
T/C (dose: 4.0 mg/kg/injection, schedule: Q01DX015 (ip), vehicle: water): 98 % of control
T/C (dose: 20.0 mg/kg/injection, schedule: Q01DX015 (ip), vehicle: water): 101 % of control
T/C (dose: 100.0 mg/kg/injection, schedule: Q01DX015 (ip), vehicle: water): 110 % of control
T/C (dose: 500.0 mg/kg/injection, schedule: Q01DX015 (ip), vehicle: water): 113 % of control

CC(C)(CC(=O)Nc1ccccc1)C(=O)O
T/C (dose: 100.0 mg/kg/injection, schedule: Q01DX009 (ip), vehicle: saline with Tween-80): 98 % of control and 100 % of control
T/C (dose: 200.0 mg/kg/injection, schedule: Q01DX009 (ip), vehicle: saline with Tween-80): 96 % of control and 100 % of control
T/C (dose: 400.0 mg/kg/injection, schedule: Q01DX009 (ip), vehicle: saline with Tween-80): 96 % of control and 102 % of control

CCCCCCCC/C=C\CCCCCCCC(=O)OCCCCCC
T/C (dose: 100.0 mg/kg/injection, schedule: Q04DX002 (ip), vehicle: saline with Tween-80): 91 % of control
T/C (dose: 200.0 mg/kg/injection, schedule: Q04DX002 (ip), vehicle: saline with Tween-80): 102 % of control
T/C (dose: 400.0 mg/kg/injection, schedule: Q04DX002 (ip), vehicle: saline with Tween-80): 95 % of control
